According to ChEMBL document CHEMBL4000171, “Structure-activity relationship studies on 1-(2-oxopropyl)indole-5-carboxylic acids acting as inhibitors of cytosolic phospholipase A2α: Effect of substituents at the indole 3-position on activity, solubility, and metabolic stability” (Eur J Med Chem, 2017):
Converted amounts (≈) assume the structure as drawn.

What was measured:
UGT [1] = experiment: Metabolic stability in CD-1 mouse liver S9 fraction assessed as UGT-mediated glucuronidation of compound by measuring compound remaining at 5 uM preincubated for 3 mins followed by UDPGA addition measured after 60 mins by HPLC/MS analysis; type: ADME; settings: read-out: Stability
[2] = biological target: T1, NADPH--cytochrome P450 reductase (Rattus norvegicus, UniProt P00388); experiment: Metabolic stability in rat liver microsomes assessed as NADPH CYP450 reductase-mediated compound metabolism by measuring compound remaining in presence of NADPH at 20 uM after 30 mins by HPLC; type: ADME; settings: read-out: Stability
T1 sequence (P00388 whole entry): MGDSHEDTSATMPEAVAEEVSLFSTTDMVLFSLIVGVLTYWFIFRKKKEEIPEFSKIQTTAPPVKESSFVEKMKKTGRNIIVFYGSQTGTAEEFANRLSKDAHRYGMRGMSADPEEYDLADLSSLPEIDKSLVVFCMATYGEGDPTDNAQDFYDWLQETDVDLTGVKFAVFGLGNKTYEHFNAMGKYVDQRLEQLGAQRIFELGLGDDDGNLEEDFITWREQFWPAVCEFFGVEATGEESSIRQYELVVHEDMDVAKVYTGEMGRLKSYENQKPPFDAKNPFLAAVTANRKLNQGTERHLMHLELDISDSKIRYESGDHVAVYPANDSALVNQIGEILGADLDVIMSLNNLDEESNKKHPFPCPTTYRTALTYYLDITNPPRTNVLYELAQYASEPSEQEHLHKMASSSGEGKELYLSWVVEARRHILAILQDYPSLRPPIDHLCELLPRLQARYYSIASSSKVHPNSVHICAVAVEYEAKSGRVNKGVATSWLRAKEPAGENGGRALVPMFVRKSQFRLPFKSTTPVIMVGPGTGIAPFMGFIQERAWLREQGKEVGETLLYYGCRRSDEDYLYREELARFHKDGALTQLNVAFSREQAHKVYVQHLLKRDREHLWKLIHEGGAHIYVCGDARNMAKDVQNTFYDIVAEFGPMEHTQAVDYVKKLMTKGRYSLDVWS

[3] = biological target: T2, NADPH--cytochrome P450 reductase (Mus musculus, UniProt P37040); experiment: Metabolic stability in CD-1 mouse liver S9 fraction assessed as NADPH CYP450 reductase-mediated compound metabolism by measuring compound remaining in presence of NADPH at 20 uM after 30 mins by HPLC method; type: ADME; settings: read-out: Stability
T2 sequence (P37040 whole entry): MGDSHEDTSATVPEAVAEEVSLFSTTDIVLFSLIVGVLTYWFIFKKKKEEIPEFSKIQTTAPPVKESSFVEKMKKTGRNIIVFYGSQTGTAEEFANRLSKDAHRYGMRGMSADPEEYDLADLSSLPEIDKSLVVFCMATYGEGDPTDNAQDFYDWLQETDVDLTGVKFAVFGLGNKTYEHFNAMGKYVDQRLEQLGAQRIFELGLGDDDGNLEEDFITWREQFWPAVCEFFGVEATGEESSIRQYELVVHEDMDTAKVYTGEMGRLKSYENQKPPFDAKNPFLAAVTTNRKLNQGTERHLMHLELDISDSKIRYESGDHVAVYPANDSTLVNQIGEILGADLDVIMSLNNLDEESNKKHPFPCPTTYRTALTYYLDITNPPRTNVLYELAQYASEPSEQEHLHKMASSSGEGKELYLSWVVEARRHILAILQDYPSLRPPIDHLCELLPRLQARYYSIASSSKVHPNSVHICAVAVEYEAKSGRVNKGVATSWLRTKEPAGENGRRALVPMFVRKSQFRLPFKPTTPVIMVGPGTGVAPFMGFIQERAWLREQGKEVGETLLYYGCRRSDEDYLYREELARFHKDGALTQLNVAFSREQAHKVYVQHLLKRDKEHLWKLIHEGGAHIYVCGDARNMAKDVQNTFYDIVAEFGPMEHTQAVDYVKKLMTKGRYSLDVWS

UGT [4] = experiment: Metabolic stability in Wistar rat liver S9 fraction assessed as UGT-mediated glucuronidation of compound by measuring compound remaining at 5 uM preincubated for 3 mins followed by UDPGA addition measured after 60 mins by HPLC/MS analysis; type: ADME; settings: read-out: Stability
[5] = biological target: T1, NADPH--cytochrome P450 reductase; experiment: Metabolic stability in rat liver S9 fraction assessed as NADPH CYP450 reductase-mediated compound metabolism by measuring compound remaining in presence of NADPH at 20 uM after 30 mins by HPLC method; type: ADME; settings: read-out: Stability
[6] = biological target: T3, Cytosolic phospholipase A2 (Homo sapiens, UniProt P47712); experiment: Inhibition of human platelet cytosolic phospholipase alpha-2 using 1-stearoyl-2-arachidonoyl-sn-glycero-3-phosphocholine/1,2-dioleoyl-sn-glycerol as substrate after 60 mins by UV-HPLC method
T3 sequence (P47712 whole entry): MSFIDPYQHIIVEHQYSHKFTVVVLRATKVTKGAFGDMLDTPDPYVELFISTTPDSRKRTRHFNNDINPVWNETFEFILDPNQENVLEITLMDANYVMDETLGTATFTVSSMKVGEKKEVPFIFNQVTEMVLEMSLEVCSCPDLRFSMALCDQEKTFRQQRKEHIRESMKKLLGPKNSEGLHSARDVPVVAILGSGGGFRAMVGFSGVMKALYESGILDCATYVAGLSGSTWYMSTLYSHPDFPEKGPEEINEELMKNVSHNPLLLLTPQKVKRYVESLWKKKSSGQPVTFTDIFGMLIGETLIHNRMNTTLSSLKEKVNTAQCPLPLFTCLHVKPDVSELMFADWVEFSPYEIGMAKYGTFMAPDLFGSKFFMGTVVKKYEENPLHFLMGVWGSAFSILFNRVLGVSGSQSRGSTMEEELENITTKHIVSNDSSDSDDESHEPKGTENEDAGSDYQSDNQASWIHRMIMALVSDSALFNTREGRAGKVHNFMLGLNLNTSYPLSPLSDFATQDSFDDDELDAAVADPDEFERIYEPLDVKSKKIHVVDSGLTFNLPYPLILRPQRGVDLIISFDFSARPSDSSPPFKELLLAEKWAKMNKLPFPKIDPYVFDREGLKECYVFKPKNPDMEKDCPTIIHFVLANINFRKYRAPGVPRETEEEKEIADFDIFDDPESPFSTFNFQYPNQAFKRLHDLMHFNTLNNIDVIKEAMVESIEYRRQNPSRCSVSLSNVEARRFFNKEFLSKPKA

[7] = Thermodynamic solubility of the compound in phosphate buffer at pH 7.4 at 1 mg sonicated for 10 mins measured after 20 hrs by reverse phase HPLC analysis; type: physicochemical; settings: read-out: Therm_solubility

Row | SMILES | remaining at 1 h, 5 µM (UGT [1]) | remaining at 0.5 h, 20 µM [2] | remaining at 0.5 h, 20 µM [3] | remaining at 1 h, 5 µM (UGT [4]) | remaining at 0.5 h, 20 µM [5] | IC50 [6] | solubility thermodynamic at 20 h [7]
1 | CCCCCCCCc1ccc(OCC(=O)Cn2cc(C(=O)CCCCC)c3cc(C(=O)O)ccc32)cc1 | 78% | 93% | 86% | 83% | 100% | – | –
2 | CCCCCCCCc1ccc(OCC(=O)Cn2cc(C(=O)CCCCCO)c3cc(C(=O)O)ccc32)cc1 | 27% | 86% | 78% | 43% | 72% | 31 nM | 422 µg/mL (≈ 788 µM)
3 | COc1ccc2c(c1)c(CC(=O)O)c(C)n2C(=O)c1ccc(Cl)cc1 [INDOMETHACIN] | – | – | – | – | – | – | 246 µg/mL (≈ 688 µM)
